Test results reported in patent US9943471B2, “Beta-2-adrenergic receptor agonist for improving skin scar colour matching” (UNIVERSITY OF LEICESTER, priority 2013, dated 2018).
Like-named read-outs stand apart in the source and are kept apart here.

Key:
[1] = test system: melanocytes; conditions: cited from earlier work
[2] = test system: full-thickness wounds, Red Duroc pig; test: Red Duroc pig wound scar study: scar scale scores; format: in vivo
Text: Anatomically and physiologically, porcine skin is very similar to human skin [19]. Wounds in small mammal skin, which is untethered, heal primarily by wound contraction, whereas porcine and human skin wounds close primarily by wound re-epithelialisation. The Red Duroc pig is well established as a reproducible model of fibro proliferative and hypertrophic scar formation. Similar to human hypertrophic scars, Red Duroc pigs heal wounds with an excessive amount of collagen deposition and increased wound contraction. In addition, the wounds heal with hyperpigmentation at the wound margins creating hyperpigmented scars and the scars are raised, similar to human scars. […] A porcine wound scar study was conducted in the Red Duroc pig. 4 rows of 5 (2×2 cm) full-thickness wounds were created, either side of the spine, on the shaved backs of 10 Red Durocs (FIGS. 1, 4). […] Two wounds per animal were biopsied (6 mm punch) at 7, 14, 21, 28 and 42 days post wounding. The remaining 10 wound scars per animal were photographed and harvested at day 56 post-wounding, giving a total of 5 wounds per position, 50 wounds in total for each group. A number of scales have been developed to score the severity of human scars. The Vancouver scar scale (VSS), the Manchester scar scale (MSS) and the patient and observer scar assessment scale (POSAS). We developed our own scale to score the severity of the Red Duroc scars based on the VSS [7] and the MSS [8]. The patient and observer scar assessment scale (POSAS) could not be used as it requires patient involvement. The VSS measures four parameters: pigmentation, vascularity, pliability and height, while the MSS measures colour, contour, distortion and texture. Our scar scale was developed to score a number of scar characteristics including: pigmentation, colour match with surrounding tissue, skin sheen, pliability, texture and height contour.

[3] = test system: full-thickness wounds, Red Duroc pig; test: Red Duroc pig wound scar study: scar area and wound area; format: in vivo; set-up: scar area reduction / scar area smaller than control wounds / wound area smaller than control (less swollen) / wound area larger than control (less contracted): concentration or dose not given beside the values
Method: A porcine wound scar study was conducted in the Red Duroc pig. 4 rows of 5 (2×2 cm) full-thickness wounds were created, either side of the spine, on the shaved backs of 10 Red Durocs (FIGS. 1, 4). […] Two wounds per animal were biopsied (6 mm punch) at 7, 14, 21, 28 and 42 days post wounding. The remaining 10 wound scars per animal were photographed and harvested at day 56 post-wounding, giving a total of 5 wounds per position, 50 wounds in total for each group. The scar closest to the average scar area, at each position, for both control and sal-treated wounds are presented (FIG. 5b). […] Indeed, by day 28 and 42 post-wounding the scar area of the sal-treated wounds was already 34.1% and 37.7% smaller than control wounds (FIG. 6a; ***P<0.001). Wound area was also measured in early time points.

[4] = test system: βARs; set-up: dose or concentration left out as unconfirmed; conditions: cited from earlier work
[5] = test system: melanoma cells; conditions: cited from earlier work
[6] = test system: age spots; conditions: added topically, Chinese females with age spots; cited from earlier work
[7] = 5 mM in Granugel, 500 μl per wound daily, day 56, vs control

## CNCC(O)c1ccc(O)c(O)c1 (stereo not drawn) [Adrenaline, adrenaline]
[1]
  melanin production / melanogenesis in melanocytes: increased melanin production
[1]; listed as Epinephrine
  melanin production / melanogenesis in melanocytes: increases melanin synthesis

## NC[C@H](O)c1ccc(O)c(O)c1 [noradrenaline]
[1]
  melanin production / melanogenesis in melanocytes: no effect

## CC(C)(C)NCC(O)c1ccc(O)c(CO)c1 (stereo not drawn) [salbutamol]
[2]; [7]
  improvement of colour match score: 44%
  improvement of height contour score: 34%
  improvement of pigmentation score: 48%
  improvement of pliability score: 22%
  improvement of sheen score: 53%
  improvement of texture score: 22%
[2]; day 56 post-wounding, P<0.0001
  scar appearance vs control scars: less hyper-pigmented
[3]; 56 days post wounding, vs control
  scar area reduction: 47.1%
[3]; after 7 days
  wound area smaller than control (less swollen): 11%
[3]; after 14 days
  wound area larger than control (less contracted): 23%
[3]; by 28 days
  wound area vs control wounds: slightly smaller
[3]; day 28 post-wounding
  scar area smaller than control wounds: 34.1%
[3]; day 42 post-wounding
  scar area smaller than control wounds: 37.7%
[3]; early time points
  re-epithelialisation rate vs control wounds: No significant difference
[4]
  activation of βARs: activate all βARs
[1]; melanocytes, in association with increased melanogenesis
  cAMP levels: enhances cAMP levels

## C=CCCCCCCCCC(=O)N[C@@H](Cc1ccccc1)C(=O)O [undecylenoyl phenylalanine]
[5]
  melanin production: suppressed melanin production
[6]
  skin lightening: skin lightening effect
